# From BigSolDB 2.1
compound,measurement,setting,value
Cc1n[nH]c(=S)s1,solubility (mole fraction),"in ethanol, 283.15 K",0.0105
same,solubility (mole fraction),"in ethanol, 288.15 K",0.0131
same,solubility (mole fraction),"in ethanol, 293.15 K",0.0156
same,solubility (mole fraction),"in ethanol, 298.15 K",0.0184
same,solubility (mole fraction),"in ethanol, 303.15 K",0.0219
same,solubility (mole fraction),"in ethanol, 308.15 K",0.0249
same,solubility (mole fraction),"in ethanol, 313.15 K",0.0297
same,solubility (mole fraction),"in ethanol, 318.15 K",0.0342
same,solubility (mole fraction),"in ethanol, 323.15 K",0.04
same,solubility (mole fraction),"in ethyl acetate, 283.15 K",0.0152
same,solubility (mole fraction),"in ethyl acetate, 288.15 K",0.0173
same,solubility (mole fraction),"in ethyl acetate, 293.15 K",0.0197
same,solubility (mole fraction),"in ethyl acetate, 298.15 K",0.0221
same,solubility (mole fraction),"in ethyl acetate, 303.15 K",0.0244
same,solubility (mole fraction),"in ethyl acetate, 308.15 K",0.0272
same,solubility (mole fraction),"in ethyl acetate, 313.15 K",0.0307
same,solubility (mole fraction),"in ethyl acetate, 318.15 K",0.0338
same,solubility (mole fraction),"in ethyl acetate, 323.15 K",0.038
same,solubility (mole fraction),"in ethyl formate, 283.15 K",0.00842
same,solubility (mole fraction),"in ethyl formate, 288.15 K",0.01
same,solubility (mole fraction),"in ethyl formate, 293.15 K",0.0114
same,solubility (mole fraction),"in ethyl formate, 298.15 K",0.0134
same,solubility (mole fraction),"in ethyl formate, 303.15 K",0.0151
same,solubility (mole fraction),"in ethyl formate, 308.15 K",0.0176
same,solubility (mole fraction),"in ethyl formate, 313.15 K",0.0202
same,solubility (mole fraction),"in ethyl formate, 318.15 K",0.0227
same,solubility (mole fraction),"in ethyl formate, 323.15 K",0.0257
same,solubility (mole fraction),"in isobutanol, 283.15 K",0.00538
same,solubility (mole fraction),"in isobutanol, 288.15 K",0.00689
same,solubility (mole fraction),"in isobutanol, 293.15 K",0.00881
same,solubility (mole fraction),"in isobutanol, 298.15 K",0.0112
same,solubility (mole fraction),"in isobutanol, 303.15 K",0.0143
same,solubility (mole fraction),"in isobutanol, 308.15 K",0.0172
same,solubility (mole fraction),"in isobutanol, 313.15 K",0.0216
same,solubility (mole fraction),"in isobutanol, 318.15 K",0.0271
same,solubility (mole fraction),"in isobutanol, 323.15 K",0.0319
same,solubility (mole fraction),"in isopropanol, 283.15 K",0.00763
same,solubility (mole fraction),"in isopropanol, 288.15 K",0.00943
same,solubility (mole fraction),"in isopropanol, 293.15 K",0.0115
same,solubility (mole fraction),"in isopropanol, 298.15 K",0.0143
same,solubility (mole fraction),"in isopropanol, 303.15 K",0.0179
same,solubility (mole fraction),"in isopropanol, 308.15 K",0.0215
same,solubility (mole fraction),"in isopropanol, 313.15 K",0.0258
same,solubility (mole fraction),"in isopropanol, 318.15 K",0.0314
same,solubility (mole fraction),"in isopropanol, 323.15 K",0.0374
same,solubility (mole fraction),"in methanol, 283.15 K",0.0104
same,solubility (mole fraction),"in methanol, 288.15 K",0.0129
same,solubility (mole fraction),"in methanol, 293.15 K",0.0153
same,solubility (mole fraction),"in methanol, 298.15 K",0.018
same,solubility (mole fraction),"in methanol, 303.15 K",0.0213
same,solubility (mole fraction),"in methanol, 308.15 K",0.0246
same,solubility (mole fraction),"in methanol, 313.15 K",0.0292
same,solubility (mole fraction),"in methanol, 318.15 K",0.0337
same,solubility (mole fraction),"in methanol, 323.15 K",0.0396
same,solubility (mole fraction),"in methyl acetate, 283.15 K",0.0167
same,solubility (mole fraction),"in methyl acetate, 288.15 K",0.0189
same,solubility (mole fraction),"in methyl acetate, 293.15 K",0.021
same,solubility (mole fraction),"in methyl acetate, 298.15 K",0.0234
same,solubility (mole fraction),"in methyl acetate, 303.15 K",0.0257
same,solubility (mole fraction),"in methyl acetate, 308.15 K",0.0284
same,solubility (mole fraction),"in methyl acetate, 313.15 K",0.0313
same,solubility (mole fraction),"in methyl acetate, 318.15 K",0.0342
same,solubility (mole fraction),"in methyl acetate, 323.15 K",0.0382
same,solubility (mole fraction),"in n-butanol, 283.15 K",0.00723
same,solubility (mole fraction),"in n-butanol, 288.15 K",0.00904
same,solubility (mole fraction),"in n-butanol, 293.15 K",0.0109
same,solubility (mole fraction),"in n-butanol, 298.15 K",0.0136
same,solubility (mole fraction),"in n-butanol, 303.15 K",0.0164
same,solubility (mole fraction),"in n-butanol, 308.15 K",0.0194
same,solubility (mole fraction),"in n-butanol, 313.15 K",0.0239
same,solubility (mole fraction),"in n-butanol, 318.15 K",0.0287
same,solubility (mole fraction),"in n-butanol, 323.15 K",0.0333
same,solubility (mole fraction),"in n-butyl acetate, 283.15 K",0.0135
same,solubility (mole fraction),"in n-butyl acetate, 288.15 K",0.0153
same,solubility (mole fraction),"in n-butyl acetate, 293.15 K",0.0172
same,solubility (mole fraction),"in n-butyl acetate, 298.15 K",0.0194
same,solubility (mole fraction),"in n-butyl acetate, 303.15 K",0.022
same,solubility (mole fraction),"in n-butyl acetate, 308.15 K",0.0246
same,solubility (mole fraction),"in n-butyl acetate, 313.15 K",0.0274
same,solubility (mole fraction),"in n-butyl acetate, 318.15 K",0.0304
same,solubility (mole fraction),"in n-butyl acetate, 323.15 K",0.0336
same,solubility (mole fraction),"in n-pentyl acetate, 283.15 K",0.0117
same,solubility (mole fraction),"in n-pentyl acetate, 288.15 K",0.0137
same,solubility (mole fraction),"in n-pentyl acetate, 293.15 K",0.0157
same,solubility (mole fraction),"in n-pentyl acetate, 298.15 K",0.0178
same,solubility (mole fraction),"in n-pentyl acetate, 303.15 K",0.0203
same,solubility (mole fraction),"in n-pentyl acetate, 308.15 K",0.0229
same,solubility (mole fraction),"in n-pentyl acetate, 313.15 K",0.0261
same,solubility (mole fraction),"in n-pentyl acetate, 318.15 K",0.0289
same,solubility (mole fraction),"in n-pentyl acetate, 323.15 K",0.0334
same,solubility (mole fraction),"in n-propanol, 283.15 K",0.0097
same,solubility (mole fraction),"in n-propanol, 288.15 K",0.0119
same,solubility (mole fraction),"in n-propanol, 293.15 K",0.0145
same,solubility (mole fraction),"in n-propanol, 298.15 K",0.0171
same,solubility (mole fraction),"in n-propanol, 303.15 K",0.0206
same,solubility (mole fraction),"in n-propanol, 308.15 K",0.0243
same,solubility (mole fraction),"in n-propanol, 313.15 K",0.0288
same,solubility (mole fraction),"in n-propanol, 318.15 K",0.033
same,solubility (mole fraction),"in n-propanol, 323.15 K",0.0389
same,solubility (mole fraction),"in n-propyl acetate, 283.15 K",0.0146
same,solubility (mole fraction),"in n-propyl acetate, 288.15 K",0.0163
same,solubility (mole fraction),"in n-propyl acetate, 293.15 K",0.0187
same,solubility (mole fraction),"in n-propyl acetate, 298.15 K",0.0213
same,solubility (mole fraction),"in n-propyl acetate, 303.15 K",0.0237
same,solubility (mole fraction),"in n-propyl acetate, 308.15 K",0.0266
same,solubility (mole fraction),"in n-propyl acetate, 313.15 K",0.0301
same,solubility (mole fraction),"in n-propyl acetate, 318.15 K",0.033
same,solubility (mole fraction),"in n-propyl acetate, 323.15 K",0.0368
